From PubChem BioAssay AID1963835 (Molecular Pharmacology Branch, DTP, NCI, 2024)
pIC50: −log10 of the molar value.

Test system: 699152-130-R-J1-PDC complex spheroid viability
Test: Anticancer human tumor 699152-130-R-J1-PDC patient-derived pancreatic carcinoma cell line growth inhibition [POLQ]
Conditions: for pIC50: curve of first compound; for viability, T/C: stronger effect = lower value
Procedure, shortened: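 Complex spheroid viability model combining PDC tumour cells with endothelial (HUVEC) and MSC stromal cells. Novobiocin, ART-558 or RP6685 were tested singly and in combination with standard and investigational anticancer drugs. Each was titrated in half-log steps from near clinical Cmax, or from 10 microM where Cmax was unknown.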

[1] = second compound 0.0316 µM, first compound 0.0316 µM
[2] = second compound 0.0316 µM, first compound 0.1 µM
[3] = second compound 0.0316 µM, first compound 0.316 µM
[4] = second compound 0.0316 µM, first compound 1 µM
[5] = second compound 0.0316 µM, first compound 3.16 µM
[6] = second compound 0.0316 µM, first compound 10 µM
[7] = second compound 0.1 µM, first compound 0.0316 µM
[8] = second compound 0.1 µM, first compound 0.1 µM
[9] = second compound 0.1 µM, first compound 0.316 µM
[10] = second compound 0.1 µM, first compound 1 µM
[11] = second compound 0.1 µM, first compound 3.16 µM
[12] = second compound 0.1 µM, first compound 10 µM
[13] = second compound 0.316 µM, first compound 0.0316 µM
[14] = second compound 0.316 µM, first compound 0.1 µM
[15] = second compound 0.316 µM, first compound 0.316 µM
[16] = second compound 0.316 µM, first compound 1 µM
[17] = second compound 0.316 µM, first compound 3.16 µM
[18] = second compound 0.316 µM, first compound 10 µM
[19] = second compound 1 µM, first compound 0.0316 µM
[20] = second compound 1 µM, first compound 0.1 µM
[21] = second compound 1 µM, first compound 0.316 µM
[22] = second compound 1 µM, first compound 1 µM
[23] = second compound 1 µM, first compound 3.16 µM
[24] = second compound 1 µM, first compound 10 µM
[25] = second compound 3.16 µM, first compound 0.0316 µM
[26] = second compound 3.16 µM, first compound 0.1 µM
[27] = second compound 3.16 µM, first compound 0.316 µM
[28] = second compound 3.16 µM, first compound 1 µM
[29] = second compound 3.16 µM, first compound 3.16 µM
[30] = second compound 3.16 µM, first compound 10 µM
[31] = second compound 10 µM, first compound 0.0316 µM
[32] = second compound 10 µM, first compound 0.1 µM
[33] = second compound 10 µM, first compound 0.316 µM
[34] = second compound 10 µM, first compound 1 µM
[35] = second compound 10 µM, first compound 3.16 µM
[36] = second compound 10 µM, first compound 10 µM
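Note: spheroids exposed to agents for 7 days before viability reading.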
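Throughout, for viability, T/C: percent of DMSO vehicle control viability so 100% = vehicle and 0% = no viable signal.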

Compound `CC(=O)O[C@H]1C(=O)[C@@]2(C)[C@H]([C@H](OC(=O)c3ccccc3)[C@]3(O)C[C@H](OC(=O)[C@H](O)[C@@H](NC(=O)c4ccccc4)c4ccccc4)C(C)=C1C3(C)C)[C@]1(OC(C)=O)CO[C@@H]1C[C@@H]2O` + Nc1ccc(C#CCN(C(=O)Cc2ncc(C(F)(F)F)cc2C(F)(F)F)c2ccc(F)cc2)nn1 has a pIC50 (second compound 0.0316 µM) of under 5.52, a pIC50 (second compound 0.1 µM) of under 5.52 and a pIC50 (second compound 0.316 µM) of under 5.52. It also gave a pIC50 (second compound 1 µM) of under 5.52, a pIC50 (second compound 3.16 µM) of under 5.52 and a pIC50 (second compound 10 µM) of under 5.52. The viability, T/C (second compound 0.0316 µM, first compound 0.00949 µM) was 82%, the viability, T/C (second compound 0.0316 µM, first compound 0.03 µM) was 66.1% and the viability, T/C (second compound 0.0316 µM, first compound 0.0949 µM) was 62.1%. The viability, T/C (second compound 0.0316 µM, first compound 0.3 µM) was 67.1%, the viability, T/C (second compound 0.0316 µM, first compound 0.949 µM) was 72.8% and the viability, T/C (second compound 0.0316 µM, first compound 3 µM) was 75.6%. The viability, T/C (second compound 0.1 µM, first compound 0.00949 µM) was 79.8%, the viability, T/C (second compound 0.1 µM, first compound 0.03 µM) was 69% and the viability, T/C (second compound 0.1 µM, first compound 0.0949 µM) was 61.4%. It also gave a viability, T/C (second compound 0.1 µM, first compound 0.3 µM) of 63.2%, a viability, T/C (second compound 0.1 µM, first compound 0.949 µM) of 68.8% and a viability, T/C (second compound 0.1 µM, first compound 3 µM) of 70.5%. It also gave a viability, T/C (second compound 0.316 µM, first compound 0.00949 µM) of 85.3%, a viability, T/C (second compound 0.316 µM, first compound 0.03 µM) of 69.2% and a viability, T/C (second compound 0.316 µM, first compound 0.0949 µM) of 65.5%. The viability, T/C (second compound 0.316 µM, first compound 0.3 µM) was 68%, the viability, T/C (second compound 0.316 µM, first compound 0.949 µM) was 64.8% and the viability, T/C (second compound 0.316 µM, first compound 3 µM) was 72.8%. It also gave a viability, T/C (second compound 1 µM, first compound 0.00949 µM) of 83%, a viability, T/C (second compound 1 µM, first compound 0.03 µM) of 72.2% and a viability, T/C (second compound 1 µM, first compound 0.0949 µM) of 65.5%. It also gave a viability, T/C (second compound 1 µM, first compound 0.3 µM) of 65.4%, a viability, T/C (second compound 1 µM, first compound 0.949 µM) of 71.6% and a viability, T/C (second compound 1 µM, first compound 3 µM) of 67.7%. The viability, T/C (second compound 3.16 µM, first compound 0.00949 µM) was 80.9%, the viability, T/C (second compound 3.16 µM, first compound 0.03 µM) was 68% and the viability, T/C (second compound 3.16 µM, first compound 0.0949 µM) was 65.4%. It also gave a viability, T/C (second compound 3.16 µM, first compound 0.3 µM) of 69.9%, a viability, T/C (second compound 3.16 µM, first compound 0.949 µM) of 84.2% and a viability, T/C (second compound 3.16 µM, first compound 3 µM) of 76.9%. The viability, T/C (second compound 10 µM, first compound 0.00949 µM) was 97%, the viability, T/C (second compound 10 µM, first compound 0.03 µM) was 70.5% and the viability, T/C (second compound 10 µM, first compound 0.0949 µM) was 72.3%. It also gave a viability, T/C (second compound 10 µM, first compound 0.3 µM) of 71.9%, a viability, T/C (second compound 10 µM, first compound 0.949 µM) of 86.7% and a viability, T/C (second compound 10 µM, first compound 3 µM) of 78.5%.

Work on `COc1cccc2c1C(=O)c1c(O)c3c(c(O)c1C2=O)CC(O)(C(=O)CO)CC3OC1CC(N)C(O)C(C)O1` (stereo unspecified) + Nc1ccc(C#CCN(C(=O)Cc2ncc(C(F)(F)F)cc2C(F)(F)F)c2ccc(F)cc2)nn1 yielded a pIC50 (second compound 0.0316 µM) of 6.45, a pIC50 (second compound 0.1 µM) of 6.39 and a pIC50 (second compound 0.316 µM) of 6.42. It also gave a pIC50 (second compound 1 µM) of 6.69, a pIC50 (second compound 3.16 µM) of 6.58 and a pIC50 (second compound 10 µM) of 6.38. The viability, T/C [1] was 78%, the viability, T/C [2] was 61.9% and the viability, T/C [3] was 51.9%. The viability, T/C [4] was 36.6%, the viability, T/C [5] was 2.41% and the viability, T/C [6] was 9.62%. The viability, T/C [7] was 76.7%, the viability, T/C [8] was 69.8% and the viability, T/C [9] was 51.9%. It also gave a viability, T/C [10] of 37.5%, a viability, T/C [11] of 3% and a viability, T/C [12] of 7.86%. The viability, T/C [13] was 78.9%, the viability, T/C [14] was 73.3% and the viability, T/C [15] was 49.7%. The viability, T/C [16] was 35.7%, the viability, T/C [17] was 5.24% and the viability, T/C [18] was 9.53%. It also gave a viability, T/C [19] of 85%, a viability, T/C [20] of 57.9% and a viability, T/C [21] of 46.7%. The viability, T/C [22] was 28.6%, the viability, T/C [23] was 1.69% and the viability, T/C [24] was 12.1%. The viability, T/C [25] was 85.2%, the viability, T/C [26] was 61.8% and the viability, T/C [27] was 51.2%. It also gave a viability, T/C [28] of 28.4%, a viability, T/C [29] of 2.48% and a viability, T/C [30] of 10.9%. The viability, T/C [31] was 80.6%, the viability, T/C [32] was 72% and the viability, T/C [33] was 56.1%. For the same compound, the viability, T/C [34] was 31.9%, the viability, T/C [35] was 3.65% and the viability, T/C [36] was 10.6%.

`O=c1[nH]cc(F)c(=O)[nH]1` + Nc1ccc(C#CCN(C(=O)Cc2ncc(C(F)(F)F)cc2C(F)(F)F)c2ccc(F)cc2)nn1 showed a pIC50 (second compound 0.0316 µM) of under 5.00, a pIC50 (second compound 0.1 µM) of under 5.00 and a pIC50 (second compound 0.316 µM) of under 5.00. For the same compound, the pIC50 (second compound 1 µM) was under 5.00, the pIC50 (second compound 3.16 µM) was under 5.00 and the pIC50 (second compound 10 µM) was under 5.00. It also gave a viability, T/C [1] of 105%, a viability, T/C [2] of 105% and a viability, T/C [3] of 99.3%. For the same compound, the viability, T/C [4] was 97.9%, the viability, T/C [5] was 98.1% and the viability, T/C [6] was 82.1%. For the same compound, the viability, T/C [7] was 100%, the viability, T/C [8] was 121% and the viability, T/C [9] was 104%. It also gave a viability, T/C [10] of 88.7%, a viability, T/C [11] of 97.3% and a viability, T/C [12] of 76.9%. For the same compound, the viability, T/C [13] was 108%, the viability, T/C [14] was 104% and the viability, T/C [15] was 103%. It also gave a viability, T/C [16] of 102%, a viability, T/C [17] of 97.5% and a viability, T/C [18] of 81.5%. It also gave a viability, T/C [19] of 113%, a viability, T/C [20] of 95.5% and a viability, T/C [21] of 97.6%. The viability, T/C [22] was 103%, the viability, T/C [23] was 87.8% and the viability, T/C [24] was 75.9%. It also gave a viability, T/C [25] of 111%, a viability, T/C [26] of 104% and a viability, T/C [27] of 93.9%. For the same compound, the viability, T/C [28] was 95.6%, the viability, T/C [29] was 104% and the viability, T/C [30] was 88.4%. It also gave a viability, T/C [31] of 116%, a viability, T/C [32] of 110% and a viability, T/C [33] of 119%. The viability, T/C [34] was 105%, the viability, T/C [35] was 105% and the viability, T/C [36] was 87.7%.
